From patent publication US20050226924A1, “Composition comprising itraconazole for oral administration” (priority 2004, published 2005)
In brackets after ≈: the same amount, converted by molar mass.

What was measured:
[1] = cited from earlier work
[2] = Solubility test in dissolution medium (pH 1.2); assay type: physicochemical; conditions: dissolution medium (pH 1.2) of Korea Pharmacopeia, simulated gastric fluid, thermodynamic from solid; dissolution medium pH 1.2, shaken at 25° C. for 24 hours, HPLC; Mean ± SD, n = 3
Description: Samples, equivalent to 30 mg of itraconazole, was added to […] of the test solution. The test solution used was the dissolution medium (pH 1.2) for dissolution test of Korea Pharmacopeia. After the samples were ultrasonicated for 30 minutes, they were shaked at 25° C. for 24 hours. Then, they were centrifuged at 3000 rpm for 20 minutes. The obtained supernatant was filtered using a 0.45 μm membrane filter, followed by 10-fold dilution with methanol. The content of itraconazole was measured by HPLC.

solubility at 24 h [2]: 1.5 ± 0.7 µg/mL (≈ 2.13 µM)
SMILES: CCC(C)n1ncn(-c2ccc(N3CCN(c4ccc(OCC5COC(Cn6cncn6)(c6ccc(Cl)cc6Cl)O5)cc4)CC3)cc2)c1=O (racemic) [Itraconazole, (±)-cis-4-[4-[4-[4-[[2-(2,4-dichlorophenyl)-2-(1H-1,2,4-triazole-1-yl-methyl)-1,3-dioxolane-4-yl]methoxy]phenyl]-1-piperazinyl]phenyl]-2,4-dihydro-2-(1-methylpropyl)-3H-1,2,4-triazole-3-one]
Solubility in dichloromethane ([1]; dichloromethane): 239000 µg/mL (≈ 339000 µM)
Solubility in water ([1]; water): less than 1 μg/ml
